In patent US20250008959A1, “HERBICIDES AND USE THEREOF” (Projini Agchem LTD, priority 2021, published 2025):
pIC50, pKd: −log10 of the molar value.

Experiments:
[1] = molecular target: T1, OASS-SAT complex (AtOASS with SAT-derived peptide) (Arabidopsis thaliana, UniProt P47998); assay: Fluorescence polarization (FP) competition with FITC-labeled SAT-derived peptide bound to OASS; type: binding; settings: competition with FITC-SAT peptide 200 nM, OASS 2.2 μM; for pIC50: single site inhibition model
T1 construct: GST (N, cleaved yes); made in house; host or cells: E. coli Rosetta (DE3)
Description: Molecules were also tested for their ability to compete with the OASS binding to the SAT-derived peptide via a fluorescence polarization (FP) competition assay wherein the N-terminus labeled peptide was incubated with the AtOASS (see Examples section below). High FP values correspond to the peptide-bound state (low molecule concentrations) and low FP values correspond to the peptide-free state (low FP values). To extract the IC50, the FP data were fitted to a single site inhibition model in PRISM by GraphPad Software. The corresponding IC50 values were extracted, whereas low IC50 values correspond to molecule that better competes with the peptide binding to AtOASS. Fluorescence polarization (FP) measurements were made on samples arrayed in 96-well plates by using BioTek H1 Synergy instrument equipped with FP module. […] The peptide in a concentration of 200 nM was incubated with OASS at a concentration of 2.2 μM in each well. Variable concentrations of each molecule starting from 100 μM down to 0.048 μM were added to evaluate the ability of each molecule to compete off the FITC labeled peptide bound to OASS. Fluorescence experiments were executed with an Em/Exc wavelengths of 480/520 nm. All measurements were done in triplicate. Experimental polarization data from simple and competitive binding experiments were fitted using GraphPad Prism, with error bars representing SD. Molecules were also tested for their ability to compete with the OASS binding to the SAT-derived peptide via a fluorescence polarization (FP) competition assay. The N-terminus labeled peptide was incubated with the AtOASS in each of the wells in a 96-well plate. Various concentrations of the molecules were added and the FP values were recorded. High FP values correspond to the peptide-bound state (low molecule concentrations) and low FP values correspond to the peptide-free state (low FP values). To extract the IC50, the FP data were fitted to a single site inhibition model in graphpad prism. The corresponding IC50 values were extracted. Low IC50 values correspond to molecule that better competes with the peptide binding to AtOASS.

[2] = system: Arabidopsis thaliana; assay: Root elongation in plates (in planta root elongation assay); type: in vivo; settings: 168 h, A. thaliana on MS medium plates, 7 days, read-out: Root-growth inhibition %
Description: 6-well plates were prepared in a biological hood with sterile half Murashige and Skoog mineral medium (MS; Duchefa, Haarlem, Netherlands) containing 1% sucrose (w/v), pH 5.8. Tested molecules were dissolved in 50 mM DMSO and diluted to various concentrations 1,000-fold greater than the final desired concentration the MS medium maintaining a final concentration of 0.1% DMSO. MS medium with 0.1% DMSO was used as a negative control. After 7 days the plates were scanned and the root length was calculated using the imageJ software. […] Further sterilization was done by washing the seeds with 50% hypochlorite and 0.2% Triton x-100 for 10 minutes followed by five cycles of washing with sterile water. Six seeds were placed in each well, and the plates were covered and sealed with parafilm. Plates were placed vertically at 4° C. for two days and then transferred to a growth chamber for seven days (22-24° C.) at day/light cycles of 16/8 hours. Following the in vitro evaluation, selected molecules were tested for their ability to inhibit A. thaliana root elongation on agar plates. Seeds were plated on medium containing the molecules dissolved in the indicated concentrations and root length was measured after 6 or 7 days when the root in the non-treated plate reached the end of the well.

[3] = molecular target: T2, AtOASS (O-acetyl serine sulfhydrylase from Arabidopsis thaliana) (Arabidopsis thaliana, UniProt P47998); assay: Isothermal titration calorimetry (ITC) binding to OASS; settings: for pKd: OASS titrated into compound in ITC cell, single binding model
T2 construct: GST (N, cleaved yes); made in house; host or cells: E. coli Rosetta (DE3)
Description: To evaluate the ability of the molecules to bind AtOASS (O-acetyl serine sulfhydrylase from Arabidopsis thaliana), the protein was placed in the ITC syringe and was titrated with the molecules that were placed in the ITC cell (see Examples section below). The direct dissociation binding constant (Kd) was then extracted from the binding curve using a single binding model, wherein a low Kd value corresponds to a stronger binding affinity.
To evaluate the binding of the small molecules to the enzyme OASS, the purified protein was placed in a 6-8 MWCO dialysis bag in 30 mM phosphate buffer, 30 mM NaCl, 1 mM TCEP, and 5% dimethyl sulfoxide. Sequential buffer exchange dialyses were executed for 12 hours each at 4° C. until dilution of >10,000 was achieved. Before the execution of the ITC binding experiment, the OASS was placed in the ITC syringe at a concentration of 400 μM and each of the small molecules was dissolved in the same dialysis buffer to a final concentration of 40 μM in the ITC cell. ITC experiments were conducted by titrating the OASS to the compounds in the cell. The ITC binding constant was evaluated using the build-in analysis software.
The designed de-novo herbicidal compounds were synthesized and evaluated for their in vitro and in planta activity. After dissolving the molecules to a stock of 50 mM in DMSO, binding and competition with the SAT-derived peptides were evaluated using ITC and FP. ITC measures the direct heat change occurring due to the interaction of a pair of molecules. ITC has certain advantages, such as the capability to detect a relatively broad range of binding affinities, being a label-free method, and providing a wide set of interaction parameters, such as affinity, stoichiometry, enthalpy, and entropy of binding. To evaluate the ability of the molecules to bind AtOASS, the protein was placed in the ITC syringe and was titrated with the molecules that were placed in the ITC cell. The direct dissociation binding constant (Kd) was then extracted from the binding curve using a single binding model. Two consecutive experiments were combined using the built in ITC module to enable better quantification. A low Kd value corresponds to a stronger binding affinity.

T1 sequence (P47998 whole entry, one chain of several): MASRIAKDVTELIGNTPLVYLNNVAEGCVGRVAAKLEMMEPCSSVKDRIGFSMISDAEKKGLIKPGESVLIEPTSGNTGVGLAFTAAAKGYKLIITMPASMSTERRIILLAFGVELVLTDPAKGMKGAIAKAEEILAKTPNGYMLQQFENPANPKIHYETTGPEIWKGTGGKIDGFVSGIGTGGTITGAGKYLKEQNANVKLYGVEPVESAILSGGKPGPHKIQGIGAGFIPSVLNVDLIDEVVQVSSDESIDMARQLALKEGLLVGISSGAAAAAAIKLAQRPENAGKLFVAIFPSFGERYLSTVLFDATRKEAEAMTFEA
T2 sequence (P47998 whole entry): as the sequence (P47998 whole entry, one chain of several) above

Row | SMILES | FP % inhibition [1] [%] | pIC50 [1] | inhibition at 50 µM [2] [%] | pKd [3] | direct binding to AtOASS by ITC (in vitro screening of purchased virtual hits) ([3]; result in words)
1 | Cc1cc(-c2cc(NC(=O)c3ccccc3-c3ccccc3C(=O)O)[nH]n2)ccc1OCCN1CCOCC1 [PJL-106] | 45 | 5.72 | 0 | 6.03 | 
2 | O=C(Nc1cccc(NC(=O)c2ccccc2-c2ccccc2C(=O)O)c1)c1ccco1 [PJL-60] | 32 | 5.32 | 0 | 5.90 | 
3 | COc1ccc(-c2csc(NC(=O)c3ncccc3-c3ccccc3C(=O)O)n2)cc1 [PJL-127] | 38 | 4.82 | 100 | 5.12 | 
4 | O=C(O)c1cc2c(c(S(=O)(=O)Nc3cc(Cl)c(Cl)c(C(=O)O)c3)c1)CCC2 [PJL-29] | 13 | 3.88 | 11 | 5.46 | 
5 | Cc1ccnn1-c1cccc(NS(=O)(=O)c2cc(C(=O)O)cc3c2CCC3)c1 [PJL-43] | 17 | 4.06 | 6 | 5.00 | 
6 | O=C(O)c1cc2c(c(S(=O)(=O)Nc3cccc(NC(=O)C4CC4)c3)c1)CCC2 [PJL-39] | 12 | 3.90 | 18 | 5.00 | 
7 | O=C(Cc1ccccc1C(=O)O)Nc1cccc(C(=O)Nc2nccs2)c1 [PJL-93] | 21 |  | 0 | 5.28 | 
8 | CC(C)n1nnc(-c2ccc(O)c(NC(=O)Cc3ccccc3C(=O)O)c2)n1 [PJL-208] | 16 | 4.01 | 0 | 4.70 | 
9 | O=C(O)c1cc2c(c(S(=O)(=O)Nc3ccc(OCc4ccccn4)c(Cl)c3)c1)CCC2 [PJS-39] | 14 | 4.14 | 2.3 | 5.12 | 
10 | O=C(O)c1cc(F)ccc1NS(=O)(=O)c1cnc(-c2ccc(F)cc2)s1 [PJL-41] | 19 | 4.47 | 85 | 5.32 | showed direct binding to AtOASS by ITC
11 | O=C(O)c1cc2c(c(S(=O)(=O)Nc3cccc(-c4n[nH]c(C5CC5)n4)c3)c1)CCC2 [PJL-71] | 24 | 4.68 | 17 | 5.21 | 
12 | O=C(O)c1ccccc1-c1ccccc1C(=O)Nc1cccc(O)c1 [PJL-64] | 23 | 4.89 | 23 | 5.47 | 
13 | NCCc1ccc(-c2csc(NC(=O)c3ccccc3-c3ccccc3C(=O)O)n2)cc1 [PJL-107] | 41 | 5.72 | 29 | 6.49 | 
14 | O=C(O)c1cccc(NC2=C(Cl)C(=O)N(c3cc(Cl)ccc3Cl)C2=O)c1 [PJL-211] | 17 | 4.19 | 72 | 4.94 | 
15 | COc1ccc(C(=O)O)c(-c2ccccc2C(=O)Nc2nc(-c3ccc(Cl)cc3Cl)cs2)c1 [PJL-118] | 43 | 5.22 | 47 | 5.64 | 
16 | COc1ccc(NC(=O)c2ccc(NS(=O)(=O)c3cc(C(=O)O)ccc3OC)cc2)cc1 [PJS-31] | 11 | 3.65 | 0 | 5.25 | 
17 | O=C(Nc1nccs1)c1cccc(NC(=O)c2ccccc2-c2ccccc2C(=O)O)c1 [PJL-62] | 31 | 5.17 | 0 | 5.70 | 
18 | O=C(O)c1ccccc1-c1ccccc1C(=O)Nc1cccc(-c2nc3ccccc3[nH]2)c1 [PJL-65] | 38 | 5.40 | 0 | 5.75 | 
19 | CCc1nnc(NC(=O)c2ccccc2-c2ccccc2C(=O)O)s1 [PJL-66] | 17 | 4.51 | 0 | 5.07 | 
20 | COc1ccc(C(=O)O)cc1S(=O)(=O)Nc1ccc(NC(=O)CC(C)C)cc1 [PJL-30] | 11 | 3.52 | 0 | 5.18 | 
21 | O=C(O)c1ccccc1NS(=O)(=O)c1cnc(-c2ccccc2)s1 [PJL-83] | 17 | 4.13 | 0 | 5.00 | 
22 | O=C(O)c1cc(F)ccc1NS(=O)(=O)c1cnc(-c2ccccc2)o1 [PJL-81] | 23 | 4.49 | 15 | 4.55 | 
23 | O=C(O)c1ccccc1-c1ccccc1C(=O)Nc1cccc(NNc2nccs2)c1 [PJL-68] | 32 | 5.00 | 0 | 5.47 | 
24 | O=C(O)c1cc(F)ccc1NS(=O)(=O)c1cnn(-c2cccc(C(F)(F)F)c2)c1 [PJL-84] | 24 | 4.36 | 47 | 4.96 | 
25 | O=C(O)c1cc2c(c(S(=O)(=O)Nc3cccc(-n4cccn4)c3)c1)CCC2 [PJL-76] | 16 |  | 0 | 4.74 | 
26 | O=C(O)c1ccccc1-c1ccccc1C(=O)Nc1cccc(C(F)(F)F)c1 [PJS-212] | 34 | 4.97 | 34 | 5.09 | 
27 | O=C(O)c1cccc(NC2=C(Cl)C(=O)N(c3ccc(Cl)c(Cl)c3)C2=O)c1 [PJL-103] | 21 | 4.14 | 0 | 5.03 | 
28 | O=C(Nc1cccc(O)c1)c1cccc(NC(=O)c2ccccc2-c2ccccc2C(=O)O)c1 [PJL-63] | 34 | 5.20 | 12 | 5.83 | 
